Earlier results on 3 compounds are cited in patent US10596205B2, “Topical medicament for skin and mucosal injuries” (REV PHARMA Corp., priority 2018, dated 2020).

The subject of one series is biofilm. Particulars: animals, diet rich in the fatty acids.
In series [1] the test system is Gram-positive microorganisms. Particulars: in vitro study.
A further series relates to S. Mutans biofilm. Particulars: for Biofilm biomass / Acidogenicity of the biofilm (pH drops): 10% sucrose then free fatty acid; for Acidogenicity of the biofilm (pH drops): compared with biofilms exposed to only 10% sucrose; for Enamel demineralization induced by sucrose: biofilms treated with the fatty acids.

`CCCCCCCCCCCC(=O)O` [Lauric acid]: in the series with biofilm, the “Quantity of bacteria in biofilm” value is reported as “lower quantity of bacteria”. Moreover, in series [1], the Bacteriostatic effect entry is on record as “highly bacteriostatic”.
With `CCCCC/C=C\C/C=C\CCCCCCCC(=O)O` [linoleic, linoleic acid], in the series with S. Mutans biofilm, the Biofilm biomass entry was “decline in biomass”, the “Acidogenicity of the biofilm (pH drops)” value is recorded as “lower pH drops” and the “Enamel demineralization induced by sucrose” value is recorded as “significantly lower reduction”. Besides, the “Quantity of bacteria in biofilm” value in the series on biofilm is reported as “lower quantity of bacteria”.
Turning to `CCCCCCCC/C=C\CCCCCCCC(=O)O` [oleic, oleic acid], in the series on S. Mutans biofilm, the Biofilm biomass result is on record as “decline in biomass”, the “Acidogenicity of the biofilm (pH drops)” value is reported as “lower pH drops” and the “Enamel demineralization induced by sucrose” value is “significantly lower reduction”.
